# Assay results as given in patent US20260001928A1 (CORTERIA PHARMACEUTICALS, priority 2022, published 2026).
# *1 amine or outer side, *2 acyl side, *3 side chain or, on linkers, in order; H or OH if unused. Where a SMILES comes first, the peptide text is derived from it. Side-chain parts run from the residue outwards. [ ]: non-standard residue; d: D form. The star is where a group is joined. C20 diacid = O=C(O)CCCCCCCCCCCCCCCCCCC(=O)*; C16 diacid = O=C(O)CCCCCCCCCCCCCCC(=O)*; γGlu = O=C(O)[C@H](CCC(=O)[*:2])N[*:1]; C14 diacid = O=C(O)CCCCCCCCCCCCC(=O)*; NMeI = CC[C@H](C)[C@H](NC)C(=O)O; AEEA = NCCOCCOCC(=O)O; Aib = CC(C)(N)C(=O)O
# Biological target: Rat CRF2 a (corticotropin-releasing factor receptor 2), on the A7R5 rat aortic smooth muscle cell line (rat, UniProt P47866 20-411)
# Test: cell-based or functional assay
# Sequence of Rat CRF2 a (corticotropin-releasing factor receptor 2), on the A7R5 rat aortic smooth muscle cell line (P47866 20-411): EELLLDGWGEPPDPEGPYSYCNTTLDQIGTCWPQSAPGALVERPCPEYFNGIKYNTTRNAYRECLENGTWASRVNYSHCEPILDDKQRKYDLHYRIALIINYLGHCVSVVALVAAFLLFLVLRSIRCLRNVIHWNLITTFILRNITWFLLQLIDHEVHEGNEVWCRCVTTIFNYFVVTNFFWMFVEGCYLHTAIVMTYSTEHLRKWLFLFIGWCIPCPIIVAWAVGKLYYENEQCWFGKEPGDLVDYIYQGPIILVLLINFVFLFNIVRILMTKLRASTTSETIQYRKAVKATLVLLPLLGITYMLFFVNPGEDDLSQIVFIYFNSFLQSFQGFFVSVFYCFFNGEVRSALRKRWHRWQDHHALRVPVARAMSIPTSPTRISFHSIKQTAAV
row,"EC50 [nM] 0% HSA (cAMP, A7R5 rat aortic smooth muscle cells)",Molecule
1,0.59 nM,Ac-IVLSLD[dV]PIKLK([γGlu-C16 diacid])KILLEQEKQKKQREQAETN[Aib]QILAQV-NH2 (SMILES CC[C@H](C)[C@H](NC(C)=O)C(=O)N[C@H](C(=O)N[C@@H](CC(C)C)C(=O)N[C@@H](CO)C(=O)N[C@@H](CC(C)C)C(=O)N[C@@H](CC(=O)O)C(=O)N[C@@H](C(=O)N1CCC[C@H]1C(=O)N[C@H](C(=O)N[C@@H](CCCCN)C(=O)N[C@@H](CC(C)C)C(=O)N[C@@H](CCCCNC(=O)CC[C@H](NC(=O)CCCCCCCCCCCCCCC(=O)O)C(=O)O)C(=O)N[C@@H](CCCCN)C(=O)N[C@H](C(=O)N[C@@H](CC(C)C)C(=O)N[C@@H](CC(C)C)C(=O)N[C@@H](CCC(=O)O)C(=O)N[C@@H](CCC(N)=O)C(=O)N[C@@H](CCC(=O)O)C(=O)N[C@@H](CCCCN)C(=O)N[C@@H](CCC(N)=O)C(=O)N[C@@H](CCCCN)C(=O)N[C@@H](CCCCN)C(=O)N[C@@H](CCC(N)=O)C(=O)N[C@@H](CCCNC(=N)N)C(=O)N[C@@H](CCC(=O)O)C(=O)N[C@@H](CCC(N)=O)C(=O)N[C@@H](C)C(=O)N[C@@H](CCC(=O)O)C(=O)N[C@H](C(=O)N[C@@H](CC(N)=O)C(=O)NC(C)(C)C(=O)N[C@@H](CCC(N)=O)C(=O)N[C@H](C(=O)N[C@@H](CC(C)C)C(=O)N[C@@H](C)C(=O)N[C@@H](CCC(N)=O)C(=O)N[C@H](C(N)=O)C(C)C)[C@@H](C)CC)[C@@H](C)O)[C@@H](C)CC)[C@@H](C)CC)C(C)C)C(C)C) [peptide of SEQ ID NO: 40]
2,1.01 nM,Ac-IVLSLD[dV]PIKLK([γGlu-C14 diacid])KILLEQEKQKKQREQAETNEQILAQV-NH2 [comparative peptide 11 (SEQ ID NO: 85)]

# System: human LAD2 cells
# Test: not given
# Format: cell-based
# Procedure, shortened: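 Mast cell degranulation: cells exposed to peptides for 30 min at final concentrations from 50, 100 or 300 down to 0.1 or 0.001 μM, with 0.5% DMSO where used, in biological duplicates. β-hexosaminidase release was read with a fluorogenic 4-methylumbelliferyl substrate as supernatant/(supernatant + Triton-lysed pellet) × 100. EC50 came from a 4-parameter sigmoidal fit.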
row,Molecule,EC50
1,CC[C@H](C)[C@H](NC)C(=O)N[C@H](C(=O)N[C@@H](CC(C)C)C(=O)N[C@@H](CO)C(=O)N[C@@H](CC(C)C)C(=O)N[C@@H](CC(=O)O)C(=O)N[C@@H](C(=O)N1CCC[C@H]1C(=O)N[C@H](C(=O)N[C@@H](CCCCN)C(=O)N[C@@H](CC(C)C)C(=O)N[C@@H](CCCCNC(=O)CC[C@H](NC(=O)CC[C@H](NC(=O)CCCCCCCCCCCCCCCCCCC(=O)O)C(=O)O)C(=O)O)C(=O)N[C@@H](CCCCN)C(=O)N[C@H](C(=O)N[C@@H](CC(C)C)C(=O)N[C@@H](CC(C)C)C(=O)N[C@@H](CCC(=O)O)C(=O)N[C@@H](CCC(N)=O)C(=O)N[C@@H](CCC(=O)O)C(=O)N[C@@H](CCCCN)C(=O)N[C@@H](CCC(N)=O)C(=O)N[C@@H](CCCCN)C(=O)N[C@@H](CCC(=O)O)C(=O)N[C@@H](CCC(N)=O)C(=O)N[C@@H](CCCNC(=N)N)C(=O)N[C@@H](CCC(=O)O)C(=O)N[C@@H](CCC(N)=O)C(=O)N[C@@H](C)C(=O)N[C@@H](CCC(=O)O)C(=O)N[C@H](C(=O)N[C@@H](CC(N)=O)C(=O)NC(C)(C)C(=O)N[C@@H](CCC(N)=O)C(=O)N[C@H](C(=O)N[C@@H](CC(C)C)C(=O)N[C@@H](C)C(=O)N[C@@H](CCC(N)=O)C(=O)N[C@H](C(N)=O)C(C)C)[C@@H](C)CC)[C@@H](C)O)[C@@H](C)CC)[C@@H](C)CC)C(C)C)C(C)C [Cmpd 242] (H-[NMeI]VLSLD[dV]PIKLK([γGlu-γGlu-C20 diacid])KILLEQEKQKEQREQAETN[Aib]QILAQV-NH2),> 300 µM
2,CC[C@H](C)[C@H](NC(C)=O)C(=O)N[C@H](C(=O)N[C@@H](CC(C)C)C(=O)N[C@@H](CO)C(=O)N[C@@H](CC(C)C)C(=O)N[C@@H](CC(=O)O)C(=O)N[C@@H](C(=O)N1CCC[C@H]1C(=O)N[C@H](C(=O)N[C@@H](CCCCN)C(=O)N[C@@H](CC(C)C)C(=O)N[C@@H](CCCCNC(=O)CC[C@H](NC(=O)CC[C@H](NC(=O)CCCCCCCCCCCCCCCCCCC(=O)O)C(=O)O)C(=O)O)C(=O)N[C@@H](CCCCN)C(=O)N[C@H](C(=O)N[C@@H](CC(C)C)C(=O)N[C@@H](CC(C)C)C(=O)N[C@@H](CCC(=O)O)C(=O)N[C@@H](CCC(N)=O)C(=O)N[C@@H](CCC(=O)O)C(=O)N[C@@H](CCCCN)C(=O)N[C@@H](CCC(N)=O)C(=O)N[C@@H](CCCCN)C(=O)N[C@@H](CCCCN)C(=O)N[C@@H](CCC(N)=O)C(=O)N[C@@H](CCCNC(=N)N)C(=O)N[C@@H](CCC(=O)O)C(=O)N[C@@H](CCC(N)=O)C(=O)N[C@@H](C)C(=O)N[C@@H](CCC(=O)O)C(=O)N[C@H](C(=O)N[C@@H](CC(N)=O)C(=O)NC(C)(C)C(=O)N[C@@H](CCC(N)=O)C(=O)N[C@H](C(=O)N[C@@H](CC(C)C)C(=O)N[C@@H](C)C(=O)N[C@@H](CCC(N)=O)C(=O)N[C@H](C(N)=O)C(C)C)[C@@H](C)CC)[C@@H](C)O)[C@@H](C)CC)[C@@H](C)CC)C(C)C)C(C)C [Cmpd 243] (Ac-IVLSLD[dV]PIKLK([γGlu-γGlu-C20 diacid])KILLEQEKQKKQREQAETN[Aib]QILAQV-NH2),> 300 µM

# Results, then the molecule that gave them:
row,EC50,Molecule
1,> 300 µM,CC[C@H](C)[C@H](NC)C(=O)N[C@H](C(=O)N[C@@H](CC(C)C)C(=O)N[C@@H](CO)C(=O)N[C@@H](CC(C)C)C(=O)N[C@@H](CC(=O)O)C(=O)N[C@@H](C(=O)N1CCC[C@H]1C(=O)N[C@H](C(=O)N[C@@H](CCCCN)C(=O)N[C@@H](CC(C)C)C(=O)N[C@@H](CCCCNC(=O)COCCOCCNC(=O)COCCOCCNC(=O)CC[C@H](NC(=O)CCCCCCCCCCCCCCCCCCC(=O)O)C(=O)O)C(=O)N[C@@H](CCCCN)C(=O)N[C@H](C(=O)N[C@@H](CC(C)C)C(=O)N[C@@H](CC(C)C)C(=O)N[C@@H](CCC(=O)O)C(=O)N[C@@H](CCC(N)=O)C(=O)N[C@@H](CCC(=O)O)C(=O)N[C@@H](CCCCN)C(=O)N[C@@H](CCC(N)=O)C(=O)N[C@@H](CCCCN)C(=O)N[C@@H](CCC(=O)O)C(=O)N[C@@H](CCC(N)=O)C(=O)N[C@@H](CCCNC(=N)N)C(=O)N[C@@H](CCC(=O)O)C(=O)N[C@@H](CCC(N)=O)C(=O)N[C@@H](C)C(=O)N[C@@H](CCC(=O)O)C(=O)N[C@H](C(=O)N[C@@H](CC(N)=O)C(=O)NC(C)(C)C(=O)N[C@@H](CCC(N)=O)C(=O)N[C@H](C(=O)N[C@@H](CC(C)C)C(=O)N[C@@H](C)C(=O)N[C@@H](CCC(N)=O)C(=O)N[C@H](C(N)=O)C(C)C)[C@@H](C)CC)[C@@H](C)O)[C@@H](C)CC)[C@@H](C)CC)C(C)C)C(C)C [Cmpd 237] (H-[NMeI]VLSLD[dV]PIKLK([AEEA-AEEA-γGlu-C20 diacid])KILLEQEKQKEQREQAETN[Aib]QILAQV-NH2)
2,36.7 µM,CC[C@H](C)[C@H](NC(C)=O)C(=O)N[C@H](C(=O)N[C@@H](CC(C)C)C(=O)N[C@@H](CO)C(=O)N[C@@H](CC(C)C)C(=O)N[C@@H](CC(=O)O)C(=O)N[C@@H](C(=O)N1CCC[C@H]1C(=O)N[C@H](C(=O)N[C@@H](CCCCN)C(=O)N[C@@H](CC(C)C)C(=O)N[C@@H](CCCCNC(=O)COCCOCCNC(=O)COCCOCCNC(=O)CC[C@H](NC(=O)CCCCCCCCCCCCCCCCCCC(=O)O)C(=O)O)C(=O)N[C@@H](CCCCN)C(=O)N[C@H](C(=O)N[C@@H](CC(C)C)C(=O)N[C@@H](CC(C)C)C(=O)N[C@@H](CCC(=O)O)C(=O)N[C@@H](CCC(N)=O)C(=O)N[C@@H](CCC(=O)O)C(=O)N[C@@H](CCCCN)C(=O)N[C@@H](CCC(N)=O)C(=O)N[C@@H](CCCCN)C(=O)N[C@@H](CCCCN)C(=O)N[C@@H](CCC(N)=O)C(=O)N[C@@H](CCCNC(=N)N)C(=O)N[C@@H](CCC(=O)O)C(=O)N[C@@H](CCC(N)=O)C(=O)N[C@@H](C)C(=O)N[C@@H](CCC(=O)O)C(=O)N[C@H](C(=O)N[C@@H](CC(N)=O)C(=O)NC(C)(C)C(=O)N[C@@H](CCC(N)=O)C(=O)N[C@H](C(=O)N[C@@H](CC(C)C)C(=O)N[C@@H](C)C(=O)N[C@@H](CCC(N)=O)C(=O)N[C@H](C(N)=O)C(C)C)[C@@H](C)CC)[C@@H](C)O)[C@@H](C)CC)[C@@H](C)CC)C(C)C)C(C)C [Cmpd 238] (Ac-IVLSLD[dV]PIKLK([AEEA-AEEA-γGlu-C20 diacid])KILLEQEKQKKQREQAETN[Aib]QILAQV-NH2)
3,> 300 µM,CC[C@H](C)[C@H](NC(C)=O)C(=O)N[C@H](C(=O)N[C@@H](CC(C)C)C(=O)N[C@@H](CO)C(=O)N[C@@H](CC(C)C)C(=O)N[C@@H](CC(=O)O)C(=O)N[C@@H](C(=O)N1CCC[C@H]1C(=O)N[C@H](C(=O)N[C@@H](CCCCN)C(=O)N[C@@H](CC(C)C)C(=O)N[C@@H](CCCCNC(=O)CC[C@H](NC(=O)CC[C@H](NC(=O)CCCCCCCCCCCCCCCCCCC(=O)O)C(=O)O)C(=O)O)C(=O)N[C@@H](CCCCN)C(=O)N[C@H](C(=O)N[C@@H](CC(C)C)C(=O)N[C@@H](CC(C)C)C(=O)N[C@@H](CCC(=O)O)C(=O)N[C@@H](CCC(N)=O)C(=O)N[C@@H](CCC(=O)O)C(=O)N[C@@H](CCCCN)C(=O)N[C@@H](CCC(N)=O)C(=O)N[C@@H](CCCCN)C(=O)N[C@@H](CCC(=O)O)C(=O)N[C@@H](CCC(N)=O)C(=O)N[C@@H](CCCNC(=N)N)C(=O)N[C@@H](CCC(=O)O)C(=O)N[C@@H](CCC(N)=O)C(=O)N[C@@H](C)C(=O)N[C@@H](CCC(=O)O)C(=O)N[C@H](C(=O)N[C@@H](CC(N)=O)C(=O)NC(C)(C)C(=O)N[C@@H](CCC(N)=O)C(=O)N[C@H](C(=O)N[C@@H](CC(C)C)C(=O)N[C@@H](C)C(=O)N[C@@H](CCC(N)=O)C(=O)N[C@H](C(N)=O)C(C)C)[C@@H](C)CC)[C@@H](C)O)[C@@H](C)CC)[C@@H](C)CC)C(C)C)C(C)C [Cmpd 241] (Ac-IVLSLD[dV]PIKLK([γGlu-γGlu-C20 diacid])KILLEQEKQKEQREQAETN[Aib]QILAQV-NH2)
4,16.4 µM,"NC(N)=NCCC[C@@H](N)C(=O)N[C@@H](CCCN=C(N)N)C(=O)N1CCC[C@H]1C(=O)N1C[C@H](O)C[C@H]1C(=O)NCC(=O)N[C@@H](Cc1cccs1)C(=O)N[C@@H](CO)C(=O)N1Cc2ccccc2C[C@@H]1C(=O)N1[C@H](C(=O)N[C@@H](CCCN=C(N)N)C(=O)O)C[C@@H]2CCCC[C@@H]21 [Icatibant, reference compound]"
